The values that follow come from paper PMC9506480, “Synthesis and Evaluation of Antiproliferative Activity, Topoisomerase IIα Inhibition, DNA Binding and Non-Clinical Toxicity of New Acridine–Thiosemicarbazone Derivatives” (Pharmaceuticals, 2022).

Where two headings read alike, the source gives them in different places. Where only a bound is given, the exact number is not on record here.

Data set [1] relates to B16-F10 (murine melanoma). Details: method as in Silva et al. (2018) [67]. To be noted: ref Silva et al. (2018) [67]; cited from earlier work.
Data set [2] relates to HepG2 (human hepatocellular carcinoma). Details: method as in Silva et al. (2018) [67]. To be noted: ref Silva et al. (2018) [67]; cited from earlier work.
Data set [3] deals with HCT116 (human colon carcinoma). Details: method as in Silva et al. (2018) [67]. To be noted: ref Silva et al. (2018) [67]; cited from earlier work.
Data set [4] deals with MRC-5 (human lung fibroblast). The arrangement: method as in Silva et al. (2018) [67]. To be noted: ref Silva et al. (2018) [67]; cited from earlier work.
Data set [5] has as its system HCT116 (human colon carcinoma). As to the kind of experiment: Alamar blue cytotoxicity assay, HCT116. Type of data set: cell-based. To be noted: HCT-116, 72 h incubation. How it is done:
(§1) The in vitro cytotoxic activity of the compounds (Table 1) was evaluated against cancer cell lines HCT116 (human colon carcinoma), HepG2 (human hepatocellular carcinoma), B16F10 (murine melanoma carcinoma) and non-cancerous cell line MRC-5 (human lung fibroblast) using the Alamar blue assay after 72 h of incubation; doxorubicin (DOX) was used as a positive control. The unsubstituted derivatives on the acridine cores were encoded as CL, and the disubstituted derivatives as DL.
(§2) The human cancer cell lines HCT116 (colon carcinoma) and HepG2 (hepatocellular carcinoma), the mouse cancer cell line B16-F10 (melanoma), and the non-cancerous human cell line MRC-5 (lung fibroblast) were obtained from the American Type Culture Collection (ATCC, Manassas, VA, USA) and cultured according to the ATCC animal cell culture guide. All cell lines tested negative for mycoplasma using a mycoplasma stain kit.
(§3) Cell viability was measured using the Alamar blue assay, as previously described. Cells were seeded in 96-well plates for all experiments. The compounds were dissolved in dimethyl sulfoxide (DMSO, Sigma-Aldrich) and added to each well in eight serial concentrations ranging from 0.19 to 25 μg/mL. As a positive control, doxorubicin was used. After 72 h of treatment, 20 μL of resazurin (0.312 mg/mL) was added to each well. A SpectraMax 190 Micro-plate Reader was used to measure absorbances at 570 and 595 nm (Molecular Devices, Sunnyvale, CA, USA). Nonlinear regression with 95% confidence intervals (CI 95%) was used to calculate the inhibitory concentration of 50% (IC50) using GraphPad Prism software (Intuitive Software for Science; San Diego, CA, USA).
On the technique in general: Alamar Blue is a resazurin reagent that responds to reducing activity.

The subject of data set [6] is MRC-5 (human lung fibroblast). The experiment in a line: Alamar blue cytotoxicity assay, non-cancerous MRC-5. Particulars: MRC5, 72 h incubation, non-cancerous cell. The data set is classed as cell-based. How it is done: as §1, §2, §3
For data set [7], the system named is B16-F10 (murine melanoma). The experiment in a line: Alamar blue cytotoxicity assay, B16-F10. To be noted: Mus musculus, 72 h incubation. Type of data set: cell-based. How it is done:
as §1, §2, §3

Data set [8] deals with T1, recombinant human topoisomerase IIα (p170) (Homo sapiens, UniProt P11388).
T1 construct: purchased Sigma-Aldrich
T1 sequence (P11388 whole entry): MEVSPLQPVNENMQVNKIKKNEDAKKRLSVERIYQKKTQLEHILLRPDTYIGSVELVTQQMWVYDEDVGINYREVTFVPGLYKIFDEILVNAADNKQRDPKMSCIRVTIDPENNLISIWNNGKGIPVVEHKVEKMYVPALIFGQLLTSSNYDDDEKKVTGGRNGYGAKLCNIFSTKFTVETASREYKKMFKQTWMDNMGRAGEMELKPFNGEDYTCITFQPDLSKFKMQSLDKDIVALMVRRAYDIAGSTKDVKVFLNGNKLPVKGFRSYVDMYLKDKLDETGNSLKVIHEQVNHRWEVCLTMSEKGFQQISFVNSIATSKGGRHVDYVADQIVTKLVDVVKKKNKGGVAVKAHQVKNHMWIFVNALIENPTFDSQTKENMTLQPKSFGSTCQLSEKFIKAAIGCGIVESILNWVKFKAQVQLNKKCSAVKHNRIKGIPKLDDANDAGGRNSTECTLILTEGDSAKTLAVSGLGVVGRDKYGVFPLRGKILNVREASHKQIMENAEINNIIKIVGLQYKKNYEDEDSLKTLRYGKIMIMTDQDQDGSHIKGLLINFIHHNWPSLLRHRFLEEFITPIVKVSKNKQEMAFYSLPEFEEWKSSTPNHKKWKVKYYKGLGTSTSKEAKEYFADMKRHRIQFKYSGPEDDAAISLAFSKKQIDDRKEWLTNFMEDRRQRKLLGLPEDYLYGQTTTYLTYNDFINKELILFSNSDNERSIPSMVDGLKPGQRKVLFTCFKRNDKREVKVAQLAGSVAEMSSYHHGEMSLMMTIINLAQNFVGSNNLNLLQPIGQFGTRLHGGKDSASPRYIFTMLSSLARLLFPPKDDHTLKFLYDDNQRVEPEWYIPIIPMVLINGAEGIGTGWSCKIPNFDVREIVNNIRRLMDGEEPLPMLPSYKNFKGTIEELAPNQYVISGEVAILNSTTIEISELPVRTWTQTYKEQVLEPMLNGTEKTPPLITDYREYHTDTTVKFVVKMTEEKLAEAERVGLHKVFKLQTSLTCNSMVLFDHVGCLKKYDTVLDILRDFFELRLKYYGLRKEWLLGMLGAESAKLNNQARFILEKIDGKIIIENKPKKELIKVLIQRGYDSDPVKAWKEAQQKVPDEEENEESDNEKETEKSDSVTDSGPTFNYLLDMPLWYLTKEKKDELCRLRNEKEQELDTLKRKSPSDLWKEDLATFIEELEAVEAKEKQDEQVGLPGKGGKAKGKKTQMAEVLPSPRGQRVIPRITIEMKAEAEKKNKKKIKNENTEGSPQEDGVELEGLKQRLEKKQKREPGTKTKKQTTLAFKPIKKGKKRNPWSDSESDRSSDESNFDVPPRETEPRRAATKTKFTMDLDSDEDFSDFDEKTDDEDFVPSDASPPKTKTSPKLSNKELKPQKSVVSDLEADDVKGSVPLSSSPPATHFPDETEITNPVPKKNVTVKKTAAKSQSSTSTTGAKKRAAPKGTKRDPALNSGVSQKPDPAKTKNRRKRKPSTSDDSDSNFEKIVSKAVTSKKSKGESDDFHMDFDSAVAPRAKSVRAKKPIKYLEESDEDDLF
The experiment in a line: Human topoisomerase IIα inhibition assay (pUC19 plasmid relaxation). Type of data set: biochemical. The text has this: Several studies have shown the ability of acridines to inhibit topoisomerases, being considered the main mechanism responsible for the antiproliferative activities of this scaffold. The possibility of the new acridine derivatives to inhibit Topo IIα in its biological function of DNA double-strand relaxation was investigated in this work. This enzymatic inhibition can be accompanied by the presence of a supercoiled or relaxed DNA band, performed with the pUC19 plasmid, as shown in Figure 2. In this study, mAMSA was used as a positive inhibition control.
For testing the ability of Topo IIα inhibition, the compounds were evaluated in the DNA plasmid relaxation assay. This test consists of evaluating the Topo IIα enzyme activity in the absence and presence of the compound, followed by electrophoresis analysis, as previously described by Almeida et al. (2016). Briefly, 100 ng pUC19 DNA plasmid (Sigma-Aldrich) and 4.0 units of recombinant human (p170) topoisomerase II (Sigma-Aldrich) in relaxation buffer without or with tested compounds were incubated for 30 min at 37 °C. The tested concentrations were […], and amsacrine (mAMSA) was used as a positive control. Reactions were terminated with 1% SDS and digested with proteinase K. Then, the reaction products were analyzed by electrophoresis gel stained with ethidium bromide and photographed under UV light. Quantitative evaluation (% of enzyme inhibition by compounds about the positive control mAMSA) of the gel bands corresponding to supercoiled DNA was performed by densitometry using image-processing software (Scion Image, version Beta 4.0.2.) according to Gouveia et al. (2018).
Figure 2 Effects of mAMSA and its acridine derivatives on topoisomerase IIα activity. Effects of derivatives and positive control on the inhibition of human topoisomerase IIα. Native supercoiled pUC19 was incubated for 30 min at 37 °C with […] of human Topo IIα in the absence (lane 2) or presence of ligands at a concentration 100 μM. Inhibition of Topo IIα-induced DNA relaxation by mAMSA (lane 3) was used as a positive control. DNA samples were run on an agarose gel followed by ethidium bromide staining.

Data set [9] relates to HepG2 (human hepatocellular carcinoma). The experiment in a line: Alamar blue cytotoxicity assay, HepG2. The data set is classed as cell-based. Particulars: 72 h incubation. How it is done: as §1, §2, §3
The test system of another data set is CT DNA. As to the kind of experiment: CT DNA binding by UV–Vis absorption spectroscopy. The arrangement: species or system calf. To be noted: compound 40 µM, CT DNA 0 to 60 µM, Tris-HCl pH 7.4. How it is done: Absorption spectroscopy is a convenient and simple method for probing the binding of small molecules to DNA. The interaction of selected acridine–thiosemicarbazone derivatives with CT DNA was studied in the 220–500 nm region. Binding constants (Kb) were calculated from [DNA]/(Ɛa − Ɛf) versus [DNA], in which Kb is given by the ratio of slope to the intercept. […] For this, the regions chosen were the ones with the highest absorption intensity above 300 nm, due to the lower interference in DNA absorption in this region (ESI, Figures S50 and S53).
The concentration of the calf thymus, Type I, fibers (CT DNA), was determined based on the extinction coefficient of the absorbance at 260 nm (6600 L mol^−1 cm^−1). All compounds were dissolved in methanol (HPLC grade) at a concentration of 1 mmol L^−1 (stock solution). Working solutions were prepared by diluting the stock solution using Tris-HCl buffer (pH 7.4), with concentrations of 40 µmol L^−1. Under the optimized concentration, the compounds were titered with increasing concentrations of CT DNA (5 to 60 µmol L^−1). After shaking the system and incubating at room temperature for 10 min, the measurements were recorded using a JASCO J818 spectropolarimeter in the range of 220 to 500 nm at 298 K. The intrinsic bond constant (Kb) was obtained by adjusting the data according to the equation below:[DNA]/(Ɛa − Ɛf) = [DNA]/(Ɛb − Ɛf) + 1/[Kb (Ɛb − Ɛf)] where Ɛa, Ɛb and Ɛf are the apparent extinction coefficient of the compounds, the extinction coefficient of the compounds found in their […] and the extinction coefficient of the compounds when fully DNA-bound, respectively. The graph of [DNA]/(Ɛa − Ɛf) versus [DNA] was used to obtain the Kb from the ratio between the slope and the intercept, as previously described in the literature. Binding data were obtained using SigmaPlot 10.0 software. The study of possible DNA denaturation using methanol–water solutions was evaluated up to the maximum final concentration of methanol in the assays (6%) (ESI, Figures S50 and S53).

The IC50 is the midpoint of a concentration-inhibition curve. `O=c1[nH]cc(F)c(=O)[nH]1` [5-FU, 5-fluorouracil]: the half-inhibitory concentration (IC50) is 3.5 µM in data set [1], 1.3 µM in data set [2], 4.1 µM in data set [3] and 57.9 µM in data set [4].

The term melting point denotes the temperature, or range, at which the solid turns liquid. As to `COc1ccc2nc3cc(Cl)ccc3c(NC(=S)N/N=C/c3ccc(C)cc3)c2c1` [DL-06, (E)-N-(6-chloro-2-methoxyacridin-9-yl)-2-(4-methylbenzylidene)hydrazine-1-carbothioamide], the melting point lay in the range of 157 to 158 °C. Moreover, the IC50 in data set [5] was more than 60 µM. Further, the IC50 in data set [6] was more than 60 µM. Also, the IC50 in [7] is 26.3 µM. For the same molecule, in data set [8] (100 µM), the “inhibition of Topo IIα enzymatic activity (in words)” value is “did not show inhibition capacity”. In data set [9], this molecule registered a 50% inhibitory concentration (IC50) of 33.4 µM.

What is called inhibition is the percentage by which the read-out fell short of the control. Molecule `COc1ccc2nc3cc(Cl)ccc3c(NC(=S)N/N=C/c3ccc(O)cc3)c2c1` [DL-07, (E)-N-(6-chloro-2-methoxyacridin-9-yl)-2-(4-hydroxybenzylidene)hydrazine-1-carbothioamide] returned a melting point of 163 to 164 °C. The concentration for half-maximal inhibition (IC50) in data set [5] came out at 28.5 µM. This molecule returned an IC50 in data set [6] of 23.6 µM. In data set [7], this molecule came in with an IC50 of 21.1 µM. Further, the “inhibition of Topo IIα enzymatic activity (in words)” value in [8] (100 µM) is given as “able to inhibit the enzymatic activity”. The “% of enzyme inhibition” value in [8] (100 µM, densitometry, relative to positive control mAMSA, '-' = no inhibition) came out at 74%. For the same molecule, in data set [8] (densitometry, relative to positive control mAMSA, '-' = no inhibition, read-out: % of enzyme inhibition), the inhibition at 100 µM was more than 74%. 24.8 µM corresponded to half-maximal inhibition in data set [9] (IC50).

In the case of `CC[n+]1c(-c2ccccc2)c2cc(N)ccc2c2ccc(N)cc21` [EtBr, ethidium bromide, reference compound], in the data set with CT DNA, the “Hypochromic (%)” value stood at 35.15%.
